Reference: US20250195530A1, “POLQ INHIBITORS” (ASTRAZENECA AB, priority 2022, published 2025)
Like-named read-outs stand apart in the source and are kept apart here.

System: DLD-1 BRCA2−/− cells
Experiment: Homologous recombination synthetic lethal inhibition of proliferation, DLD-1 BRCA2-/- (Cell Titre Glo 3D)
Type: cell-based
Conditions: for IC50: Homo sapiens
In short: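 DLD-1 BRCA2−/− (3,000 cells/mL) and parental DLD-1 (1,500 cells/mL) cells in phenol red-free RPMI 1640 with 10% FBS were exposed to a 10-point, three-fold compound series from 10 μM to 0.51 nM at 37 °C, 5% CO2. Medium and compound were replenished on day 6. CellTiter-Glo 3D luminescence was read on day 7 (DLD-1) or day 12 (BRCA2−/−), and IC50 was taken as 50% reduction of maximum signal.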

[1] = DLD-1, DLD-1 BRCA2-/- proliferation, column head only partly shown, read-out: POLQ PD Prolif Lumin (converted)
[2] = DLD-1, proliferation, luminescence, taken as DLD-1 BRCA2-/-, read-out: POLQ PD Prolif Lumin (converted)
[3] = DLD-1, first proliferation column (c5), taken as DLD-1 BRCA2-/-, read-out: POLQ PD Prolif Lumin (converted)
[4] = DLD-1, first proliferation column (c5), DLD-1 BRCA2-/-, read-out: POLQ PD Prolif Lumin (converted)

SMILES: CC(CCOc1ccc(-c2nc3c(OC4(C)CC4)ncnc3n2Cc2cccc(Cl)c2F)c(Cl)c1)C(=O)O (racemic) [Example T267, 4-(3-chloro-4-(9-(3-chloro-2-fluorobenzyl)-6-(1-methylcyclopropoxy)-9H-purin-8-yl)phenoxy)-2-methylbutanoic acid]
- IC50 [1]: 398 nM

SMILES: Cc1ccnc(Cn2c(-c3ccc(OCC(=O)N4CC[C@@H](CO)C4)cc3Cl)nc3c(OC4(C)CC4)ncnc32)c1 [Example T578, (R)-2-(3-chloro-4-(6-(1-methylcyclopropoxy)-9-((4-methylpyridin-2-yl)methyl)-9H-purin-8-yl)phenoxy)-1-(3-(hydroxymethyl)pyrrolidin-1-yl)ethan-1-one]
- IC50 (DLD-1, first proliferation column, DLD-1 BRCA2-/-, read-out: POLQ PD Prolif Lumin (converted)): 631 nM

SMILES: CCC(CCOc1ccc(-c2nc3c(OC4(C)CC4)ncnc3n2Cc2cccc(Cl)c2)c(Cl)c1)C(=O)O (racemic) [Example T441, 4-(3-chloro-4-(9-(3-chlorobenzyl)-6-(1-methylcyclopropoxy)-9H-purin-8-yl)phenoxy)-2-ethylbutanoic acid]
- IC50 [2]: 158 nM

SMILES: CC(CCOc1ccc(-c2nc3c(OC4(C)CC4)ncnc3n2Cc2ccccc2C(F)F)c(Cl)c1)C(=O)O (single isomer, unassigned) [Example T414, 4-(3-chloro-4-(9-(2-(difluoromethyl)benzyl)-6-(1-methylcyclopropoxy)-9H-purin-8-yl)phenoxy)-2-methylbutanoic acid]
- IC50 [2]: 1580 nM

SMILES: Cc1ccnc(Cn2c(-c3ccc(OCCN(C)C)cc3Cl)nc3c(OC4(C)CC4)nccc32)c1 [Example T381, 2-(3-chloro-4-(4-(1-methylcyclopropoxy)-1-((4-methylpyridin-2-yl)methyl)-1H-imidazo[4,5-c]pyridin-2-yl)phenoxy)-N,N-dimethylethan-1-amine]
- IC50 [3]: 251 nM

SMILES: CC(CCOc1ccc(-c2nc3c(OC4(C)CC4)ncnc3n2Cc2cc(F)cc(Cl)c2)c(Cl)c1)C(=O)O (single isomer, unassigned) [Example T273, 4-(3-chloro-4-(9-(3-chloro-5-fluorobenzyl)-6-(1-methylcyclopropoxy)-9H-purin-8-yl)phenoxy)-2-methylbutanoic acid]
- POLQ PD Prolif Lumin (DLD-1 BRCA2-/- proliferation, column head only partly shown): 6.8

SMILES: Cc1ccnc(Cn2c(-c3ccc(OCC(=O)N(C)[C@H]4C[C@@H](O)C4)cc3Cl)nc3c(OC4(C)CC4)ncnc32)c1 [Example T582, 2-(3-chloro-4-(6-(1-methylcyclopropoxy)-9-((4-methylpyridin-2-yl)methyl)-9H-purin-8-yl)phenoxy)-N-((1s,3s)-3-hydroxycyclobutyl)-N-methylacetamide]
- POLQ PD Prolif Lumin (DLD-1 BRCA2-/-): 6.2

SMILES: Cc1ccnc(Cn2c(-c3ccc(C(=O)N4CC[C@H](F)C4)cc3Cl)nc3c(OC4(C)CC4)ncnc32)c1 [Example T281, (S)-(3-chloro-4-(6-(1-methylcyclopropoxy)-9-((4-methylpyridin-2-yl)methyl)-9H-purin-8-yl)phenyl)(3-fluoropyrrolidin-1-yl)methanone]
- IC50 [1]: 794 nM

SMILES: Cc1ccnc(Cn2c(-c3ccc(N4CCOCC4=O)cc3Cl)nc3c(OC4(C)CC4)ncnc32)c1 [Example T182, 4-(3-chloro-4-(6-(1-methylcyclopropoxy)-9-((4-methylpyridin-2-yl)methyl)-9H-purin-8-yl)phenyl)morpholin-3-one]
- IC50 [4]: 631 nM

SMILES: CNC(=O)c1ccc(Cl)c(-c2nc3c(OC4(C)CC4)ncnc3n2Cc2cc(C)ccn2)c1 [Example T54, 4-chloro-N-methyl-3-(6-(1-methylcyclopropoxy)-9-((4-methylpyridin-2-yl)methyl)-9H-purin-8-yl)benzamide]
- IC50 (DLD-1, DLD-1 BRCA2 −/− cells, mean, read-out: POLQ PD Prolif Lumin BRCA2 −/− mean pIC50 (converted)): > 10000 nM

SMILES: Cc1ccc(C)c(Cn2c(-c3ccc(OCCC(C)C(=O)O)cc3Cl)nc3c(OC4(C)CC4)ncnc32)c1 (racemic) [Example T569, 4-(3-chloro-4-(9-(2,5-dimethylbenzyl)-6-(1-methylcyclopropoxy)-9H-purin-8-yl)phenoxy)-2-methylbutanoic acid]
- IC50 [4]: 631 nM

SMILES: Cc1ccnc(Cn2c(-c3ccc(C(=O)N4CC[C@@](C)(O)C4)cc3Cl)nc3c(OC4(C)CC4)ncnc32)c1 [Example T463, (R)-(3-chloro-4-(6-(1-methylcyclopropoxy)-9-((4-methylpyridin-2-yl)methyl)-9H-purin-8-yl)phenyl)(3-hydroxy-3-methylpyrrolidin-1-yl)methanone]
- IC50 [2]: 1580 nM

SMILES: COc1cccc(Cn2c(-c3ccc(OCCC(C)C(=O)O)cc3Cl)nc3c(OC4(C)CC4)ncnc32)c1 (single isomer, unassigned) [Example T455, 4-(3-chloro-4-(9-(3-methoxybenzyl)-6-(1-methylcyclopropoxy)-9H-purin-8-yl)phenoxy)-2-methylbutanoic acid]
- IC50 [2]: 1580 nM

SMILES: CO[C@H]1CCN(C(=O)c2ccc(-c3nc4c(OC5(C)CC5)ncnc4n3Cc3cc(C)ccn3)c(Cl)c2)C1 [Example T465, (S)-(3-chloro-4-(6-(1-methylcyclopropoxy)-9-((4-methylpyridin-2-yl)methyl)-9H-purin-8-yl)phenyl)(3-methoxypyrrolidin-1-yl)methanone]
- IC50 [2]: 631 nM

SMILES: Cc1ccnc(Cn2c(-c3ccc(C(=O)N4CC[C@@H](C#N)C4)cc3Cl)nc3c(OC4(C)CC4)ncnc32)c1 [Example T405, (R)-1-(3-chloro-4-(6-(1-methylcyclopropoxy)-9-((4-methylpyridin-2-yl)methyl)-9H-purin-8-yl)benzoyl)pyrrolidine-3-carbonitrile]
- IC50 [2]: 1260 nM

SMILES: Cc1cnc(Cn2c(-c3ccc(OCCN4CC[C@@H](O)C4)cc3Cl)nc3c(OC4(C)CC4)ncnc32)s1 [Example T245, (R)-1-(2-(3-chloro-4-(6-(1-methylcyclopropoxy)-9-((5-methylthiazol-2-yl)methyl)-9H-purin-8-yl)phenoxy)ethyl)pyrrolidin-3-ol]
- IC50 [1]: 631 nM

SMILES: Cc1ccnc(Cn2c(-c3ccc(OCC(=O)N4CCNC(=O)C4)cc3Cl)nc3c(OC4(C)CC4)ncnc32)c1 [Example T432, 4-(2-(3-chloro-4-(6-(1-methylcyclopropoxy)-9-((4-methylpyridin-2-yl)methyl)-9H-purin-8-yl)phenoxy)acetyl)piperazin-2-one]
- IC50 [2]: > 6310 nM

SMILES: Cc1ccnc(Cn2c(-c3ccc(OCC(=O)NCC(F)(F)F)cc3Cl)nc3c(OC4(C)CC4)ncnc32)c1 [Example T154, 2-(3-chloro-4-(6-(1-methylcyclopropoxy)-9-((4-methylpyridin-2-yl)methyl)-9H-purin-8-yl)phenoxy)-N-(2,2,2-trifluoroethyl)acetamide]
- IC50 [4]: 200 nM

SMILES: C#CCNC(=O)COc1ccc(-c2nc3c(OC4(C)CC4)ncnc3n2Cc2cc(C)ccn2)c(Cl)c1 [Example T266, 2-(3-chloro-4-(6-(1-methylcyclopropoxy)-9-((4-methylpyridin-2-yl)methyl)-9H-purin-8-yl)phenoxy)-N-(prop-2-yn-1-yl)acetamide]
- IC50 [1]: 158 nM

SMILES: COc1ccc(F)cc1Cn1c(-c2cccc(OCC(C)CC(=O)O)c2Cl)nc2c(OC3(C)CC3)ncnc21 (single isomer, unassigned) [Example U80, 4-(2-chloro-3-(9-(5-fluoro-2-methoxybenzyl)-6-(1-methylcyclopropoxy)-9H-purin-8-yl)phenoxy)-3-methylbutanoic acid]
- POLQ PD Prolif Lumin BRCA2 −/− mean pIC50 (DLD-1 BRCA2 −/−, mean): 8

SMILES: Cc1ccnc(Cn2c(-c3ccc(OCCC4(O)COC4)cc3Cl)nc3c(OC4(C)CC4)ncnc32)c1 [Example T334, 3-(2-(3-chloro-4-(6-(1-methylcyclopropoxy)-9-((4-methylpyridin-2-yl)methyl)-9H-purin-8-yl)phenoxy)ethyl)oxetan-3-ol]
- IC50 [3]: 251 nM

SMILES: Cc1ccnc(Cn2c(-c3ccc(N4CCCNCC4)cc3Cl)nc3c(OC4(C)CC4)ncnc32)c1 [Example T384, 8-(2-chloro-4-(1,4-diazepan-1-yl)phenyl)-6-(1-methylcyclopropoxy)-9-((4-methylpyridin-2-yl)methyl)-9H-purine]
- IC50 [3]: 398 nM

SMILES: Cc1ccnc(Cn2c(-c3ccc(OCC(=O)NC(C)C)cc3Cl)nc3c(OC4(C)CC4)ncnc32)c1 [Example T366, 2-(3-chloro-4-(6-(1-methylcyclopropoxy)-9-((4-methylpyridin-2-yl)methyl)-9H-purin-8-yl)phenoxy)-N-isopropylacetamide]
- IC50 [3]: 200 nM

SMILES: Cc1ccnc(Cn2c(-c3ccc(OC[C@H]4CCO4)cc3Cl)nc3c(OC4(C)CC4)ncnc32)c1 [Example T194, (R)-8-(2-chloro-4-(oxetan-2-ylmethoxy)phenyl)-6-(1-methylcyclopropoxy)-9-((4-methylpyridin-2-yl)methyl)-9H-purine]
- IC50 [4]: 251 nM

SMILES: Cc1ccnc(Cn2c(-c3ccc(OCC4(O)COC4)cc3Cl)nc3c(OC4(C)CC4)ncnc32)c1 [Example T200, 3-((3-chloro-4-(6-(1-methylcyclopropoxy)-9-((4-methylpyridin-2-yl)methyl)-9H-purin-8-yl)phenoxy)methyl)oxetan-3-ol]
- IC50 [4]: 316 nM

SMILES: CNC(=O)COc1ccc(-c2nc3c(OC4(C)CC4)ncnc3n2Cc2cc(C)ccn2)c(Cl)c1 [Example T118, 2-(3-chloro-4-(6-(1-methylcyclopropoxy)-9-((4-methylpyridin-2-yl)methyl)-9H-purin-8-yl)phenoxy)-N-methylacetamide]
- IC50 [4]: 251 nM

SMILES: Cc1ccnc(Cn2c(-c3ccc(CCNC(=O)[C@@H](C)O)cc3Cl)nc3c(OC4(C)CC4)ncnc32)c1 [Example T368, (R)-N-(3-chloro-4-(6-(1-methylcyclopropoxy)-9-((4-methylpyridin-2-yl)methyl)-9H-purin-8-yl)phenethyl)-2-hydroxypropanamide]
- IC50 [3]: 631 nM
